Values after ≈ are worked out from the molar mass of the structure shown. Where two headings read alike, the source gives them in different places.
Key:
Assay type in all cases: cell-based
[1] = test system: Actinomyces bovis 13684; experiment: Susceptibility of anaerobic bacteria, agar dilution; conditions: read-out: 24 Hr. Minimum Inhibitory Concentration
[2] = test system: Clostridium innocuum 1373; experiment: as above; conditions: read-out: 24 Hr. Minimum Inhibitory Concentration
[3] = test system: Clostridium perfringens 81; experiment: microbe, parasite or virus in culture; conditions: Clostridium perfringens, 81, 24 h, read-out: 24 Hr. Minimum Inhibitory Concentration
[4] = test system: Clostridium ramosum 1313; experiment: Susceptibility of anaerobic bacteria, agar dilution; conditions: read-out: 24 Hr. Minimum Inhibitory Concentration
[5] = test system: Clostridium septicum 1128; experiment: as above; conditions: 24 h, read-out: 24 Hr. Minimum Inhibitory Concentration
Protocol: (§1) The susceptibility of anaerobic bacteria, both gram positive and gram negative, to a representative number of the novel compounds of this application was determined using the agar dilution method. The bacteria used were isolated from patients hospitalized at the Indiana University Medical Center. The isolates were identified in the anaerobe laboratory of the Medical Center by the criteria established by Dowell et al., Laboratory Methods in Anaerobic Bacteriology. Public Health Serv. Publ. No. 1803 (1968) [Center for Disease Control, Atlanta, Ga.]; and by Smith et al., The Pathogenic Anaerobic Bacteria, pages 96-136 (1968) [Charles C. Thomas, Publisher, Springfield, Ill.]. All the organisms were maintained in chopped meat glucose medium (Scott Labs) at room temperature.
(§2) The method used for the agar dilution tests was based on the studies of Sutter et al., Antimicrob. Ag. Chemother. 3, 188-193 (1973). The strains of anaerobic bacteria were grown in 16 × 120 mm. tubes for 16 to 18 hours in Thioglycolate medium without indicator--135C (Becton, Dickinson and Co.), to which was added 5 mcg. of hemin per milliliter prior to autoclaving, plus 1 mg. of sodium bicarbonate and 0.1 mcg. of filter-sterilized menadione per milliliter after autoclaving. The growth tubes for the bacteria Veillonella alcalescens were additionally supplemented with 5 mg. of sodium lactate per milliliter. The strains were adjusted to the turbidity of the No. 1 McFarland standard in Thioglycolate medium without indicator--135C containing an additional 0.13 percent Bacto-agar (Difco). Each strain was then applied to the surface of the petri plate (100 mm. × 15 mm.) by means of a replicator.
(§3) For the agar dilution studies, two-fold dilutions of the test compounds were prepared in deionized water to which was then added laked sheep blood and filter-sterilized menadione so the concentrations after the agar dilution were 5 percent and 10 mcg./ml. respectively. An equal volume of double strength Brucella agar (Becton, Dickinson and Co.) was mixed with each dilution in a water bath held at 50°C. and then poured onto the petri plates.
(§4) All of the procedures were done inside a plastic glove box, except for the incubation of the growth tubes and the pouring of the plates. After the plates hardened, they were put inside the glove box for a minimum of two hours before they were inoculated. Generally, the glove box procedures of Aranki et al., Applied Microbiology 17, 568-576 (1969), were followed, but the following modifications were used. Dry materials were introduced into the glove box by evacuating the lock to 28 inches of mercury and filling once with nitrogen gas, followed by evacuating in the same manner and filling with an 80 percent nitrogen plus 10 percent CO2 plus 10 percent hydrogen gas mixture. Liquid media and agar plates were introduced into the glove box by evacuating the lock to 10 inches of mercury and filling with gas four times. The nitrogen gas was used to fill the lock for the first two cycles of evacuation, with the gas mixture described above used for the final two fillings.
(§5) All the plates were incubated at 37°C. in Gas Pak jars (Becton, Dickinson and Co.) containing palladium-coated alumina catalysts (reactivated after each use). The results of the agar dilution tests were read after about 24 hours of incubation. The minimum inhibitory concentration (MIC) was recorded as the lowest concentration of test compound at which there was no growth.
(§6) The results of these in vitro tests are recorded in Charts 11 and 12 which follow. The test compounds are identified in the same manner as in the previous experiments. The antibiotics cephalothin and erythromycin were also run simultaneously with the novel compounds of this application, for comparison purposes, and the results are included in Charts 11 and 12 below.

[6] = test system: Clostridium septicum bovine; experiment: as above; conditions: 24 h, read-out: 24 Hr. Minimum Inhibitory Concentration
Protocol: as §1, §2, §3, §4, §5, §6

[7] = test system: Eubacterium aerofaciens 1235; experiment: as above; conditions: read-out: 24 Hr. Minimum Inhibitory Concentration
[8] = test system: Peptococcus anaerobius 1428; experiment: as above; conditions: 24 h, read-out: 24 Hr. Minimum Inhibitory Concentration
[9] = test system: Peptostreptococcus intermedius 1264; experiment: as above; conditions: read-out: 24 Hr. Minimum Inhibitory Concentration
[10] = test system: Propionibacterium acnes 44; experiment: as above; conditions: read-out: 24 Hr. Minimum Inhibitory Concentration
[11] = test system: Propionibacterium acnes 79; experiment: as above; conditions: read-out: 24 Hr. Minimum Inhibitory Concentration
[12] = test system: Bacteroides fragilis sp. fragilis 1877; experiment: as above; conditions: 24 h, read-out: 24 Hr. Minimum Inhibitory Concentration
[13] = test system: Bacteroides fragilis sp. fragilis 1936B; experiment: as above; conditions: 24 h, read-out: 24 Hr. Minimum Inhibitory Concentration
[14] = test system: Bacteroides fragilis sp. thetaiotaomicron 1438; experiment: as above; conditions: 24 h, read-out: 24 Hr. Minimum Inhibitory Concentration
[15] = test system: Bacteroides fragilis sp. vulgatus 1563; experiment: as above; conditions: 24 h, read-out: 24 Hr. Minimum Inhibitory Concentration
[16] = test system: Bacteroides fragilis sp. vulgatus 1211; experiment: as above; conditions: 24 h, read-out: 24 Hr. Minimum Inhibitory Concentration
[17] = test system: Fusobacterium symbiosum 1470; experiment: as above; conditions: read-out: 24 Hr. Minimum Inhibitory Concentration
[18] = test system: Fusobacterium necrophorum 13859; experiment: as above; conditions: read-out: 24 Hr. Minimum Inhibitory Concentration
[19] = test system: Veillonella alcalescens 1; experiment: as above; conditions: read-out: 24 Hr. Minimum Inhibitory Concentration
[20] = [Clostridium] innocuum, 1373, 24 h
[21] = Thomasclavelia ramosa, 24 h, Clostridium ramosum 1313
[22] = Collinsella aerofaciens, 1235, 24 h
[23] = 24 h, Peptostreptococcus intermedius 1264
[24] = Cutibacterium acnes, 24 h, Propionibacterium acnes 44
[25] = Bacteroides fragilis sp. fragilis 1936B
[26] = Fusobacterium necrophorum, 13859, 24 h
[27] = Thomasclavelia ramosa, 1313, 24 h
[28] = 24 h, Clostridium innocuum 1373
[29] = Bacteroides fragilis sp. vulgatus 1563
[30] = Veillonella parvula, 24 h, Veillonella alcalescens 1

SMILES | MIC ([1]; 24 h, Actinomyces bovis 13684) | MIC [2, 20] | MIC [3] | MIC [4, 21] | MIC [5] | MIC [6] | MIC [7, 22] | MIC [9, 23] | MIC [10, 24] | MIC ([11]; Cutibacterium acnes, 79, 24 h) | MIC ([12]; Bacteroides fragilis) | MIC ([14]; Bacteroides fragilis) | MIC ([15]; Bacteroides fragilis) | MIC ([16]; Bacteroides fragilis) | MIC ([17]; Fusobacterium, 1470, 24 h) | MIC [18, 26] | MIC ([19]; Veillonella parvula, 1, 24 h) | MIC ([1]; Actinomyces bovis, 13684, 24 h) | MIC [8] | MIC ([13]; Bacteroides fragilis) | other results
Cn1c([N+](=O)[O-])cnc1-c1nn(CCCl)c(N)c1C#N [Compound 15, 5-Amino-1-(2-chloroethyl)-3-(1-methyl-5-nitro-2-imidazolyl)pyrazole-4-carbonitrile] | 1 µg/mL (≈ 3.38 µM) | < 0.125 µg/mL | < 0.125 µg/mL | 0.5 µg/mL (≈ 1.69 µM) | 0.25 µg/mL (≈ 0.845 µM) | < 0.125 µg/mL | < 0.125 µg/mL | 8 µg/mL (≈ 27.1 µM) | > 32 µg/mL | < 0.125 µg/mL | < 0.125 µg/mL | < 0.125 µg/mL | < 0.125 µg/mL | < 0.125 µg/mL | < 0.125 µg/mL | < 0.125 µg/mL | < 0.125 µg/mL |  |  |  | MIC ([8]; Peptococcus anaerobius 1428): 1 µg/mL (≈ 3.38 µM); MIC [13, 25]: 0.5 µg/mL (≈ 1.69 µM)
CNNC=Nc1c(C#N)c(-c2ncc([N+](=O)[O-])n2C)nn1C [Compound 21, N-[4-Cyano-1-methyl-3-(1-methyl-5-nitroimidazol-2-yl)pyrazol-5-yl]formimidic acid, 2-methyl hydrazide] |  | < 0.125 µg/mL | < 0.125 µg/mL |  | < 0.125 µg/mL | < 0.125 µg/mL | < 0.125 µg/mL | 0.5 µg/mL (≈ 1.65 µM) | 32 µg/mL (≈ 106 µM) | < 0.125 µg/mL | < 0.125 µg/mL | < 0.125 µg/mL | < 0.125 µg/mL | < 0.125 µg/mL | < 0.125 µg/mL | < 0.125 µg/mL | < 0.125 µg/mL | < 0.125 µg/mL | < 0.125 µg/mL | < 0.125 µg/mL | MIC [4, 27]: < 0.125 µg/mL
Cn1nc(-c2ncc([N+](=O)[O-])n2C)cc1N [Compound 3, 5-Amino-1-methyl-3-(1-methyl-5-nitro-2-imidazolyl)pyrazole] |  | < 0.125 µg/mL | < 0.125 µg/mL | 4 µg/mL (≈ 18 µM) | < 0.125 µg/mL | < 0.125 µg/mL | < 0.125 µg/mL | 16 µg/mL (≈ 72 µM) | 0.5 µg/mL (≈ 2.25 µM) | < 0.125 µg/mL | < 0.125 µg/mL | < 0.125 µg/mL | < 0.125 µg/mL | < 0.125 µg/mL | < 0.125 µg/mL | < 0.125 µg/mL | < 0.125 µg/mL | < 0.125 µg/mL | < 0.125 µg/mL | < 0.125 µg/mL | 
CN(C)S(=O)(=O)Nc1c(C#N)c(-c2ncc([N+](=O)[O-])n2C)nn1C [Compound 20] | 2 µg/mL (≈ 5.64 µM) |  | 8 µg/mL (≈ 22.6 µM) | 4 µg/mL (≈ 11.3 µM) | 8 µg/mL (≈ 22.6 µM) | 8 µg/mL (≈ 22.6 µM) |  | 32 µg/mL (≈ 90.3 µM) | > 32 µg/mL |  |  |  |  |  |  |  |  |  |  |  | MIC [2, 28]: 16 µg/mL (≈ 45.2 µM); MIC ([7]; Collinsella aerofaciens, 24 h, Eubacterium aerofaciens 1235): 8 µg/mL (≈ 22.6 µM); MIC ([8]; Peptococcus anaerobius 1428): 1 µg/mL (≈ 2.82 µM); MIC ([11]; Cutibacterium acnes, 24 h, Propionibacterium acnes 79): 1 µg/mL (≈ 2.82 µM); MIC ([12]; Bacteroides fragilis sp. fragilis 1877): 4 µg/mL (≈ 11.3 µM); MIC [13, 25]: 2 µg/mL (≈ 5.64 µM); MIC ([14]; Bacteroides fragilis sp. thetaiotaomicron 1438): 4 µg/mL (≈ 11.3 µM); MIC [15, 29]: 1 µg/mL (≈ 2.82 µM); MIC ([16]; Bacteroides fragilis sp. vulgatus 1211): 2 µg/mL (≈ 5.64 µM); MIC ([17]; 24 h, Fusobacterium symbiosum 1470): 4 µg/mL (≈ 11.3 µM); MIC ([18]; 24 h, Fusobacterium necrophorum 13859): 1 µg/mL (≈ 2.82 µM); MIC [19, 30]: 1 µg/mL (≈ 2.82 µM)
CC(=O)OCC1=C(C(=O)O)N2C(=O)[C@@H](NC(=O)Cc3cccs3)[C@H]2SC1 [Cephalothin, cephalothin, reference compound] | 2 µg/mL (≈ 5.04 µM) |  | 2 µg/mL (≈ 5.04 µM) | 8 µg/mL (≈ 20.2 µM) | 1 µg/mL (≈ 2.52 µM) | 4 µg/mL (≈ 10.1 µM) | 2 µg/mL (≈ 5.04 µM) |  |  | 1 µg/mL (≈ 2.52 µM) | > 128 µg/mL | 64 µg/mL (≈ 161 µM) | 8 µg/mL (≈ 20.2 µM) | 4 µg/mL (≈ 10.1 µM) | 64 µg/mL (≈ 161 µM) | < 0.5 µg/mL |  |  | 2 µg/mL (≈ 5.04 µM) | > 128 µg/mL | MIC [2, 28]: 8 µg/mL (≈ 20.2 µM); MIC ([9]; Peptostreptococcus, 1264, 24 h): 1 µg/mL (≈ 2.52 µM); MIC ([10]; Cutibacterium acnes, 44, 24 h): 2 µg/mL (≈ 5.04 µM); MIC [19, 30]: < 0.5 µg/mL
CN(C)C=Nc1c(C#N)c(-c2ncc([N+](=O)[O-])n2C)nn1C [Compound 9, 5-[[(Dimethylamino)methylene]amino]-1-methyl-3-(1-methyl-5-nitro-2-imidazolyl)pyrazole-4-carbonitrile] |  | < 0.125 µg/mL | < 0.125 µg/mL |  | < 0.125 µg/mL | < 0.125 µg/mL | < 0.125 µg/mL | > 32 µg/mL | > 32 µg/mL | < 0.125 µg/mL | < 0.125 µg/mL | < 0.125 µg/mL |  | < 0.125 µg/mL | < 0.125 µg/mL | < 0.125 µg/mL | < 0.125 µg/mL | < 0.125 µg/mL | < 0.125 µg/mL | < 0.125 µg/mL | MIC [4, 27]: < 0.125 µg/mL; MIC [15, 29]: 0.25 µg/mL (≈ 0.827 µM)
CCOC=Nc1c(C#N)c(-c2ncc([N+](=O)[O-])n2C)nn1C [Compound 4, Ethyl N-[4-cyano-1-methyl-3-(1-methyl-5-nitro-2-imidazolyl)-pyrazol-5-yl]formimidate] |  | < 0.125 µg/mL | < 0.125 µg/mL |  | < 0.125 µg/mL | < 0.125 µg/mL | < 0.125 µg/mL | 16 µg/mL (≈ 52.8 µM) | > 32 µg/mL | < 0.125 µg/mL | < 0.125 µg/mL | < 0.125 µg/mL | < 0.125 µg/mL | < 0.125 µg/mL | < 0.125 µg/mL | < 0.125 µg/mL | < 0.125 µg/mL | < 0.125 µg/mL | < 0.125 µg/mL | < 0.125 µg/mL | MIC [4, 27]: < 0.125 µg/mL

From patent US3980794A, “Method for promoting growth of poultry with 3-(5-nitro-2-imidazolyl)pyrazoles” (Eli Lilly and Company, priority 1975, dated 1976)
